As a reminder, the IC50 is the concentration needed to halve the response being measured.

Each structure is given as a SMILES string. Activity calls are given as the source filed them. The rule behind the calls is not given here.

For experiment [1], the system named is HCT-116. Description: Potency index, ratio of SAHA IC50 to test compound IC50 for antiproliferative activity against human HCT-116 cells assessed as inhibition of cell growth by MTT assay. It counts as functional.
Experiment [2] relates to HL-60. Description: Antiproliferative activity against human HL-60 cells assessed as inhibition of cell growth by MTT assay. In kind it is functional, cell-based.
The subject of experiment [3] is HCT-116. Description: Induction of apoptosis in human HCT-116 cells assessed as necrotic cells at 1 uM incubated for 24 hrs by Annexin V-FITC/PI staining based flow cytometry analysis (reference value: 0.00%). It counts as functional. In general terms: Flow cytometry measures light scatter and fluorescence of single cells or particles in a stream.
Experiment [4] deals with T1, Histone deacetylase 11 (Homo sapiens, UniProt Q96DB2).
T1 sequence (Q96DB2 whole entry): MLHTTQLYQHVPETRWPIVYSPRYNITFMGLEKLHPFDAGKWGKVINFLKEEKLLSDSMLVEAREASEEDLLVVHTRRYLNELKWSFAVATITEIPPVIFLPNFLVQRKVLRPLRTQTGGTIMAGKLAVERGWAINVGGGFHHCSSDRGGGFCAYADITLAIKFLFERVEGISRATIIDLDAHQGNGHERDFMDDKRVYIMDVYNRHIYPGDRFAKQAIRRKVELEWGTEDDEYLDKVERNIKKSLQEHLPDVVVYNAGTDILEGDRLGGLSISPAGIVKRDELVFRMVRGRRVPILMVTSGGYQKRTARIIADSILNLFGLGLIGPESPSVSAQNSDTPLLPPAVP
Description: Inhibition of HDAC11 (unknown origin).

The test system of experiment [5] is HCT-116. The experiment is described as follows: Induction of cell cycle arrest in human HCT-116 assessed as S phase cells at 0.5 uM incubated for 48 hrs by flow cytometric analysis (reference value: 12.79%). In kind it is functional.
The subject of experiment [6] is HCT-116. Description: Induction of apoptosis in human HCT-116 cells assessed as activation of caspase pathway incubated for 24 hrs by Western blot analysis. The following applies: dose 0.5-1 µM. It counts as functional, cell-based. A general note: A western blot detects proteins with antibodies after separation by electrophoresis.
In experiment [7] the test system is HL-60. The experiment is described as follows: Potency index, ratio of SAHA IC50 to test compound IC50 for antiproliferative activity against human HL-60 cells assessed as inhibition of cell growth by MTT assay. It counts as functional. In general terms: Tetrazolium assays rely on reduction of a dye to a coloured formazan, in cell work by metabolically active cells.

The target in experiment [8] is T2, DNA topoisomerase 1 (Homo sapiens) (UniProt P11387).
T2 sequence (whole entry): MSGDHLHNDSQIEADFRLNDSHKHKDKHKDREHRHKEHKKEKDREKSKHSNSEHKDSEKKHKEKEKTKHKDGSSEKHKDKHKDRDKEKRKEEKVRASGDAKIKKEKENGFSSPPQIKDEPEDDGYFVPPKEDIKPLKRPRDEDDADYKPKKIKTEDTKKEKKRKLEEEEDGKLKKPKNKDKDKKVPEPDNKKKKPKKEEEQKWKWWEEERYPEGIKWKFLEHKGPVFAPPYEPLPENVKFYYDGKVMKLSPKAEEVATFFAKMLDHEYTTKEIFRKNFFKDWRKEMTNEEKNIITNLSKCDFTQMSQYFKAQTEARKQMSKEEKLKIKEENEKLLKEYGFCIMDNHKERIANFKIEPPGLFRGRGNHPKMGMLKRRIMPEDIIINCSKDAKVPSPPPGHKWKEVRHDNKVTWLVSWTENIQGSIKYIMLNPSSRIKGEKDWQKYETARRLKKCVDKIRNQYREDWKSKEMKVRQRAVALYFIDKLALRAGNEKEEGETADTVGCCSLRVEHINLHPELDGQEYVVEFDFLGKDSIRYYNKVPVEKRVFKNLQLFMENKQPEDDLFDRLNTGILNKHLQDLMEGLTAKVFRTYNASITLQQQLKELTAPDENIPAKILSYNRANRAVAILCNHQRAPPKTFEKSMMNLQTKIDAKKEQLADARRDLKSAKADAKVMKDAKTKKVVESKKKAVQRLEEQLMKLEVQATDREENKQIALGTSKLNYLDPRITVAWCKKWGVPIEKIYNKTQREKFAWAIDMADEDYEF
The experiment is described as follows: Inhibition of topoisomerase 1 (unknown origin) assessed as effect on DNA by gel electrophoresis.

Experiment [9] deals with HCT-116. The experiment is described as follows: Induction of apoptosis in human HCT-116 cells assessed as increase in Bax protein expression at 0.5 to 1 uM incubated for 24 hrs by Western blot analysis. The settings on record: dose 0.5-1 µM. In kind it is functional, cell-based.
The subject of experiment [10] is HCT-116. Description: Induction of cell cycle arrest in human HCT-116 assessed as S phase cells at 1 uM incubated for 48 hrs by flow cytometric analysis (reference value: 12.79%). It counts as functional.
The target of experiment [11] is Histone deacetylase 3 (Homo sapiens, UniProt O15379). Description: Inhibition of HDAC3 (unknown origin).
For experiment [12], the target named is T3, Protein deacetylase HDAC6 (Homo sapiens, UniProt Q9UBN7).
T3 sequence (Q9UBN7 whole entry): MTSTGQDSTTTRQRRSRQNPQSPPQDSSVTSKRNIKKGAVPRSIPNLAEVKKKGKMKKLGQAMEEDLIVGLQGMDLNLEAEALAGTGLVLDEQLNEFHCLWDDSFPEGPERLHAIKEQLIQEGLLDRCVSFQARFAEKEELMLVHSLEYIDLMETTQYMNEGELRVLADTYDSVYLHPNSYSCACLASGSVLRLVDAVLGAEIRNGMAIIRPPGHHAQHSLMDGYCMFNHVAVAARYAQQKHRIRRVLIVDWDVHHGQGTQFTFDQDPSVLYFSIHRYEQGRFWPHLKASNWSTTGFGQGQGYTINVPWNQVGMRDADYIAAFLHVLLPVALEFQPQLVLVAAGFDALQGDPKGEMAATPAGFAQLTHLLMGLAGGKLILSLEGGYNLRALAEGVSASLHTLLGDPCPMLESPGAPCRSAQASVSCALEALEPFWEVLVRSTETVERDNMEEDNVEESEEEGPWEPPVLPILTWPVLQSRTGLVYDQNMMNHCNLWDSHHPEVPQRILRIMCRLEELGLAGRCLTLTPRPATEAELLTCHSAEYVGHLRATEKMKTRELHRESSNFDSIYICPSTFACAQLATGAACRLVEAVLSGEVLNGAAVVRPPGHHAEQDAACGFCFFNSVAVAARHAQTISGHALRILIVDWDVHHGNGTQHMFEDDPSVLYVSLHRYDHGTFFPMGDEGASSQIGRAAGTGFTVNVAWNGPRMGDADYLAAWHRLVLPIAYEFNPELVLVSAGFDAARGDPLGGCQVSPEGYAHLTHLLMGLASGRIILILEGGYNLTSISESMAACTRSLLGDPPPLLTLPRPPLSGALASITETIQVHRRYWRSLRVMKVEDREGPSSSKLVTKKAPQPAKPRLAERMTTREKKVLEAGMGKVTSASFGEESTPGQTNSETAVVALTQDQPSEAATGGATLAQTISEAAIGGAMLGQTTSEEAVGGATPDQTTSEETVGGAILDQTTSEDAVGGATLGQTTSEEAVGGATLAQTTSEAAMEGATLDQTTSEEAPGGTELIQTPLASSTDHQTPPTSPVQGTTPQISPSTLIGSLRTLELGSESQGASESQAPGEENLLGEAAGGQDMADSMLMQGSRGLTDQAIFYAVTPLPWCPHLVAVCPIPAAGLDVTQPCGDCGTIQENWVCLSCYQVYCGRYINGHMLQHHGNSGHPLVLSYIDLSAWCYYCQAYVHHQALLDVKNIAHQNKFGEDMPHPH
Description: Inhibition of HDAC6 (unknown origin).

Histone deacetylase 3, sequence (O15379 whole entry): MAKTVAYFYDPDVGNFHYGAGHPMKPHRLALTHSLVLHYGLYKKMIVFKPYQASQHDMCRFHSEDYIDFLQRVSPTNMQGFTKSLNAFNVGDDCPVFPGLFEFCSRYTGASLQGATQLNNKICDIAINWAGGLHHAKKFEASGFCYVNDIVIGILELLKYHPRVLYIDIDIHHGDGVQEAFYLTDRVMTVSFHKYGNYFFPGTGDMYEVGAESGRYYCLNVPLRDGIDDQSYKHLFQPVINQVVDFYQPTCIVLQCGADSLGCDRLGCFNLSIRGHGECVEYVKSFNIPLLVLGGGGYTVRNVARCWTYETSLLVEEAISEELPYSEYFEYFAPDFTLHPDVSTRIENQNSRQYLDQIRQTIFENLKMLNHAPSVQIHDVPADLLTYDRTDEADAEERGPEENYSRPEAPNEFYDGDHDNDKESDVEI

With `O=C(CCCCCCNc1nc2ccccc2nc1-c1nc2ccccc2o1)NO`, the “Ratio IC50” value in experiment [1] came out at 6; in [7], 2. In addition, the IC50 in [2] was 890 nM; in experiment [4], 110 nM; in [11] it was 15.5 nM; in experiment [12] it was 44.7 nM. Besides, the Activity in experiment [3] is 0.103%; in experiment [5], 11.65%; in experiment [6], “Dose-Dependent Effect”; in experiment [10], 13.79%. Besides, in experiment [8], the inhibition result was “inactive”. Moreover, the outcome in experiment [9] was Active.

For the origin of these results see ChEMBL document CHEMBL5257106, “Design, synthesis, and biological evaluation of novel HDAC inhibitors with a 3-(benzazol-2-yl)quinoxaline framework” (Bioorg Med Chem Lett, 2023).
